Measured values taken from patent US9771563B2, “Chemical approaches for generation of induced pluripotent stem cells” (The Scripps Research Institute, priority 2008, dated 2017).

Columns and labels:
[1] = tested on: mES R1 cells; assay: Proliferation assay; type: cell-based, mouse; conditions: 2 μM BayK, 1 μM BIX; 15, 24, 48 hours; vs DMSO
Procedure: mES R1 cells were plated onto gelatin-coated 6-well plates at a density of 2×10^5 cells/well in complete mES cell media. Upon cell attachment, app. 12 hours, the cells were treated either with DMSO, 1 μM BIX, 2 μM BayK, and a combination of both, in triplicate. At 15, 24 and 48 hours, the cells were detached using trypsin, and counted using a hemocytometer. Trypan blue (Sigma-Aldrich, St. Louis, Mo.) was used for dead cell exclusion.

[2] = tested on: OG2+/-/ROSA26+/- MEFs; assay: Assessment of SOX2 expression after compound treatment (RT-PCR); type: cell-based, mouse; conditions: 2 μM BayK, 1 μM BIX, 6 days
Procedure: OG2^+/−/ROSA26^+/− MEFs were plated onto 6-well plate at a density of 3.4×10^4 cells per well. On the following day, the cells were treated with DMSO, 1 μM BIX, 2 μM BayK, and a combination of both, in triplicate, for 6 days. The media was refreshed at day 3. RNA from each well was then isolated using the RNAeasy Mini Kit (Quiagen). Reverse transcription of the RNA was performed using the iScript™ cDNA Synthesis Kit (BioRad, Hercules, Calif.). Amplification of endogenous Sox2 was done using primers previously published (Takahashi, K., Okita, K., Nakagawa, M., and Yamanaka, S. (2007). Induction of pluripotent stem cells from fibroblast cultures. Nat Protoc 2, 3081-3089; Takahashi, K., and Yamanaka, S. (2006). Induction of pluripotent stem cells from mouse embryonic and adult fibroblast cultures by defined factors. Cell 126, 663-676) with Platinum PCR SuperMix (Invitrogen) on a Mastercycler® ep gradient PCR machine (Eppendorf).

[3] = tested on: mouse embryonic fibroblasts (129 or OG2 MEFs); assay: Screen for iPSC generation from MEFs transduced with Oct4/Klf4 (OK); type: cell-based
Procedure: Unmodified MEFs derived from E13-14 embryos of the 129 mice were used for the initial screen. MEFs were plated on Matrigel at 3.5×10^4 cells/well of a 6-well plate and transduced with OK (retroviral vectors expressing Oct4 and Klf4) alone. Within 14-21 days, treated cells were assessed for the appearance of colonies that had the characteristic embryonic stem cell (ESC) colony morphology and were positive for the pluripotency marker alkaline phosphatase (ALP). Such OK-transduced cells generated only a few small non-compact colonies, which were weakly positive for ALP expression. These colonies initially appeared within 21 days after viral transduction and were difficult to expand. Therefore, such assay system offered a clean background for the identification of small molecules having desirable reprogramming inducing activity. Using this system, compounds from a library of around 2000 known small molecules (see Experimental Procedures below) were screened and were identified as hits when they induced the appearance of ESC colonies that were strongly positive for ALP within 14-21 days after treatment. This image-based method provided a more accurate assessment of reprogramming as compared to homogenous reporter-based assay. BIX appeared to have the strongest effect with reproducible induction of more than 1-2 compact ESC-like colonies with high ALP expression. We observed that when MEFs were treated with BIX after OK viral transduction, compact colonies with strong ALP expression could be readily detected within approximately 14-21 days. These cells were also positive for Nanog, Oct4 and SSEA-1 expression. […] However, the reprogramming efficiency in MEFs transduced with OK and treated with BIX was still low, about 2 colonies/3.5×10^4 cells, in comparison to the four factor-induced reprogramming of MEFs or the OK/BIX NPC reprogramming (Shi, Y. et al., Cell Stem Cell, 2:525-528 (2008)). Therefore, we conducted a second screen using a similar protocol, but where BIX was added to the basal media after OK viral transduction. This provided a more permissive platform to identify new small molecules that could further improve reprogramming efficiency. More importantly, this second screen could facilitate discovery of small molecules that impact reprogramming in a more specific manner, for example by acting on signal transduction pathways rather than on histone or DNA modifying enzymes. In this second screen, we again assayed the library of around 2000 known small molecules (see Experimental Procedures), and confirmed two compounds that were able to act in a synergistic manner with BIX to improve reprogramming based on the criteria of the screen. […] Therefore, RG108 was not pursued further for this study. Instead, we focused our phenotypic and functional characterization on another small molecule that was identified in the second screen, BayK, an L-calcium channel agonist. […] Therefore, BayK might play a more specific role in the reprogramming process. When 129 MEFs were transduced with empty retrovirus (negative control); no colonies observed. When 129 MEFs were transduced with OK without small molecules; few small flattened colonies with weak ALP expression present. […] When OK-transduced MEFs were treated with BIX in combination with BayK, a significant increase in the number of ALP^+ colonies that closely resemble the mESC morphology could be observed (˜7 colonies) as compared to OK-transduced MEFs treated with BIX alone (˜2 colonies).
Primary 12952/SvPasCrlf (primary screen) or ROSA26^+/−/OG2^+/− (secondary screen) MEFs were plated onto Matrigel (1:50; BD Biosciences, Bedford, Mass.) coated dishes at a density of 3.5×10^4 cells per well of a 6-well plate. Twenty-four hours later, these cells were transduced overnight with defined retroviruses at 37° C., 5% CO2. […] (all products were from Invitrogen, Carlsbad, Calif., except where mentioned). […]

[4] = tested on: Normal Human Epidermal Keratinocytes (NHEKs); assay: Reprogramming of lentivirally transduced NHEKs (TRA-1-81 colonies); type: cell-based; conditions: 0.25 mM NaB vs 0.5 mM VPA
Source text: Among several readily available primary human somatic cell types, keratinocytes that can be easily isolated from human skin or hair follicle represent an attractive cell source for reprogramming, because they endogenously express Klf4 and cMyc, and were reported to be reprogrammed more efficiently using the conventional four TFs or three TFs (without Myc) (Aasen et al., Nat Biotechnol 26, 1276-1284 (2008); Maherali et al., Cell Stem Cell 3, 340-345 (2008)). […] Furthermore, we have shown that such dual pathway inhibition could also enhance reprogramming of human keratinocytes by two exogenous TFs (i.e. OK) with two small molecules, Parnate (an inhibitor of lysine-specific demethylase 1) and CHIR99021 (a GSK3 inhibitor) (Li et al., Stem Cells 27, 2992-3000 (2009)). However, such 2-TFs reprogramming process was very inefficient and complex (e.g. involving two exogenous TFs and four chemicals), and reprogramming with even one less TF appeared daunting. Toward this end, we developed a step-wise strategy in refining reprogramming condition and identifying new reprogramming chemical entities. […]

[5] = tested on: MEFs; assay: Real-time PCR of pluripotency genes in untransduced MEFs after small molecule treatment; type: cell-based, mouse; conditions: 10 μM CHIR99021, three days
Procedure: To detect the expression of pluripotency genes by MEFs and NHEKs that were treated with small molecules, untransduced MEFs and NHEKs were treated for three days in mESC growth medium with 10 μM CHIR99021 or in hES cell medium with either combination of 10 μM CHIR99021 and 2 μM Parnate or combination of 10 μM CHIR99021, 2 μM Parnate, 0.5 μM PD0325901 and 2 μM SB431542. For the semi-quantitative and quantitative RT-PCR analyses, RNA was extracted from miPSCs-OK, hiPSCs-OK, MEFs, treated MEFs and treated NHEKs using the RNeasy Plus Mini Kit in combination with QIAshredder (Qiagene). Reverse transcription was performed with 1 μg RNA using iScript™ cDNA Synthesis Kit (BioRad). […] Real-time PCR was carried out using iQ SYBR Green Supermix (BioRad). […] The expression of genes of interest was normalized to that of GAPDH in all samples.

[6] = tested on: MEFs (129, ROSA26+/-/OG2+/-); assay: Reprogramming of MEFs transduced with Oct4/Sox2/Klf4 or Oct4/Klf4 with CHIR99021; type: cell-based, mouse
Procedure: Cell Culture and Viral Transduction: MEFs were derived from 129S2/SvPasCrlf and ROSA26^+/−/OG2^+/− mice according to the protocol reported on WiCell Research Institute website: “Introduction to human embryonic stem cell culture methods”. ROSA26^+/−/OG2^+/− heterozygous transgenic mice carry GFP reporter gene under the control of the Oct4 promoter (Oct4-GFP) and the ubiquitously expressed neo/lacZ transgene [Do J T, Scholer H R, Stem Cells, 22:941-949 (2004)]. Animal experiments were performed according to the Animal Protection Guidelines of the Max Planck Institute for Biomolecular Research, Germany. MEFs were transduced by Oct4, Klf4 and Sox2 three factors, or two-factor combinations of the pMXs-based retroviruses encoding mouse Oct4, Klf4 and Sox2 (Addgene) as previously described [Takahashi K, Yamanaka S, Cell, 126:663-676 (2006)]. […] MEFs transduced with Oct4/Klf4/Sox2 (lx 10^4 cells/well together with 10^5 cells/well CF1 feeders in 6-well plates) were then treated with GSK-3 inhibitor CHIR99021 (Stemgent) for two weeks, and EGFP positive colonies were picked up at the third week after treatment. MEFs transduced with Oct4/Klf4 (lx 10^5 cells/well in 6-well plates) were treated with 10 μM CHIR99021 for four weeks, GFP positive colonies were picked up and expanded at the fourth to fifth week after treatment.

[7] = tested on: mouse fibroblasts; assay: Reprogramming of mouse fibroblasts with exogenous poly-Arg transcription factor proteins; type: cell-based; conditions: cells incubated with transcription factor proteins plus agent
Procedure: Mouse fibroblasts were grown in mESC medium supplemented with 8 μg/ml of either Oct4/Sox2/Klf4 or Oct4/Sox2/Klf4/Myc (all proteins comprising poly-Arg as described above) for 6-8 hours, washed, and incubated for 2-3 days in mESC media without the above-listed transcription factors. This (4-12 hours with, 1-3 days without) was repeated a number (1, 2, 3, 4, or more) of times and then the cells were cultured in mESC for two weeks.
Mouse fibroblasts were grown in mESC growth medium [Knockout DMEM (Invitrogen) supplemented with 10% ES-FBS+10% KSR, 0.1 mM 2-ME, 1% Glutamax, 1% Non-essential amino acids, 1% EmbryoMax ESC Qualified Nucleosides (Millipore), and 10^3 units/ml LIF (ESGRO, Chemicon International)] supplemented with 8 μg/ml of Oct4/Sox2/Klf4/Myc (all four transcription factors are tagged with poly-Arg […]; SEQ ID NO:2) for 4-12 hours, followed by culturing the cells in the absence of the Oct4/Sox2/Klf4/Myc polypeptides for one day. This procedure was repeated 4 times. The cells were then cultured in mESC medium for another two weeks. iPSC clones were detected by colony morphology and expression of pluripotency markers. An intermediate iPSC clone, which expresses ALP but not Oct4 (Oct4), was dissociated with Trypsin-EDTA. The clone was then expanded by continuous culturing with regular mESC medium or medium supplemented with 0.5 μM PD0325901, 3 μM CHIR99021, 0.5 μM A-83-01. The number of Oct4-positive colonies were counted 2 weeks after small molecule treatment (FIG. 14).

SMILES: COC(=O)C1=C(C)NC(C)=C([N+](=O)[O-])C1c1ccccc1C(F)(F)F (stereo not shown) [BayK8644]
- proliferation of mES cells (cell number) [1]: does not lead to a change in proliferation
- SOX2 expression [2]: does not induce SOX2 expression
- reprogramming efficiency (GFP+ colonies) ([3]; OG2 MEFs transduced with OK, FIG. 3): did not increase reprogramming efficiency above OK-transduced MEF control
- reprogramming activity on OK-transduced MEFs ([3]; in the absence of BIX): no observable reprogramming activity on OK-transduced MEFs in the absence of BIX

SMILES: CCCC(=O)[O-].[Na+] [NaB, sodium butyrate]
- generation of iPSCs under OK condition [4]: much more reliable and efficient than the previously reported 0.5 mM VPA

SMILES: Cc1c[nH]c(-c2cnc(NCCNc3ccc(C#N)cn3)nc2-c2ccc(Cl)cc2Cl)n1 [CHIR99021]
- expression of Sox2 and Oct4 (real-time PCR) [5]: did not induce the expression of Sox2 and Oct4 in MEFs
- GFP positive colonies out of 10^5 OG2 MEFs ([6]; Oct4/Klf4 transduction, 10 μM CHIR99021, 4-5 weeks): about six
- reprogramming efficiency (GFP-positive colonies) ([6]; Oct4/Sox2/Klf4-transduced MEFs, about 10 μM, from 0.03-0.08% without): 0.2-0.4 % of transduced MEFs
- number of AP-positive mESC-like colonies ([6]; Oct4/Sox2/Klf4 transduced MEFs, two weeks treatment, staining at third week): significantly increased the number of alkaline phosphase (AP)-positive mESC-like colonies in a dose-dependent manner
- efficiency and speed of development of pluripotent cells [7]: improved efficiency and speed of development of pluripotent cells
